Data reported in the NIST ThermoML archive (doi:10.1021/je900407u).

Assay: isobaric coefficient of expansion
Settings: Liquid, Micro DSCII

CCCC[n+]1ccn(C)c1.O=S(=O)([N-]S(=O)(=O)C(F)(F)F)C(F)(F)F
isobaric coefficient of expansion
Settings	5000 kPa	10000 kPa	15000 kPa	20000 kPa	25000 kPa	30000 kPa	35000 kPa	40000 kPa	45000 kPa	50000 kPa
278.15 K	0.000672 1/K	0.000661 1/K	0.000651 1/K	0.000643 1/K	0.000632 1/K	0.000627 1/K	0.000618 1/K	0.000612 1/K	0.000602 1/K	0.000594 1/K
288.15 K	0.000665 1/K	0.000656 1/K	0.000646 1/K	0.000638 1/K	0.000632 1/K	0.000622 1/K	0.000615 1/K	0.000606 1/K	0.000599 1/K	0.000594 1/K
298.15 K	0.000662 1/K	0.000653 1/K	0.000642 1/K	0.000633 1/K	0.000626 1/K	0.000616 1/K	0.000607 1/K	0.000599 1/K	0.000592 1/K	0.000586 1/K
308.15 K	0.000657 1/K	0.000647 1/K	0.000636 1/K	0.000627 1/K	0.000617 1/K	0.00061 1/K	0.000602 1/K	0.000595 1/K	0.000586 1/K	0.000578 1/K
318.15 K	0.00065 1/K	0.000646 1/K	0.000634 1/K	0.000623 1/K	0.000614 1/K	0.000605 1/K	0.000597 1/K	0.000588 1/K	0.000581 1/K	0.000573 1/K
328.15 K	0.000665 1/K	0.000649 1/K	0.000636 1/K	0.000625 1/K	0.000614 1/K	0.000603 1/K	0.000595 1/K	0.000582 1/K	0.000578 1/K	0.000569 1/K
338.15 K	0.000646 1/K	0.000635 1/K	0.000625 1/K	0.000615 1/K	0.000605 1/K	0.000597 1/K	0.000587 1/K	0.00058 1/K	0.000573 1/K	0.000566 1/K
348.15 K	0.000653 1/K	0.000639 1/K	0.000623 1/K	0.000613 1/K	0.000604 1/K	0.000595 1/K	0.000586 1/K	0.000578 1/K	0.000569 1/K	0.000563 1/K

CCCCn1cc[n+](C)c1.[F][Sb-]([F])([F])([F])([F])[F] [1-butyl-3-methylimidazolium hexafluoroantimonate]
isobaric coefficient of expansion
Settings	5000 kPa	10000 kPa	15000 kPa	20000 kPa	25000 kPa	30000 kPa	35000 kPa	40000 kPa	45000 kPa	50000 kPa
278.15 K	0.000636 1/K	0.000627 1/K	0.000619 1/K	0.000614 1/K	0.000607 1/K	0.0006 1/K	0.000593 1/K	0.000589 1/K	0.000582 1/K	0.000575 1/K
288.15 K	0.00063 1/K	0.000621 1/K	0.000614 1/K	0.000609 1/K	0.000603 1/K	0.000596 1/K	0.000589 1/K	0.000582 1/K	0.000575 1/K	0.000573 1/K
298.15 K	0.000624 1/K	0.000619 1/K	0.000609 1/K	0.000602 1/K	0.000597 1/K	0.000588 1/K	0.000581 1/K	0.000576 1/K	0.000571 1/K	0.000566 1/K
308.15 K	0.00062 1/K	0.00061 1/K	0.000604 1/K	0.000596 1/K	0.000589 1/K	0.000583 1/K	0.000576 1/K	0.000571 1/K	0.000563 1/K	0.000558 1/K
318.15 K	0.000612 1/K	0.000609 1/K	0.000599 1/K	0.000591 1/K	0.000584 1/K	0.000577 1/K	0.00057 1/K	0.000564 1/K	0.000557 1/K	0.00055 1/K
328.15 K	0.000609 1/K	0.000601 1/K	0.000595 1/K	0.000589 1/K	0.00058 1/K	0.000573 1/K	0.000566 1/K	0.000559 1/K	0.000553 1/K	0.000547 1/K
338.15 K	0.000607 1/K	0.000599 1/K	0.000593 1/K	0.000585 1/K	0.000575 1/K	0.000569 1/K	0.000563 1/K	0.000556 1/K	0.000549 1/K	0.000545 1/K
348.15 K	0.000602 1/K	0.000597 1/K	0.000588 1/K	0.000579 1/K	0.000574 1/K	0.000567 1/K	0.000562 1/K	0.000555 1/K	0.000549 1/K	0.000542 1/K

CCCCn1cc[n+](C)c1.COS(=O)(=O)[O-] [1-butyl-3-methylimidazolium methyl sulfate]
isobaric coefficient of expansion
Settings	5000 kPa	10000 kPa	15000 kPa	20000 kPa	25000 kPa	30000 kPa	35000 kPa	40000 kPa	45000 kPa	50000 kPa
278.15 K	0.000563 1/K	0.000556 1/K	0.00055 1/K	0.000545 1/K	0.00054 1/K	0.000535 1/K	0.000531 1/K	0.000527 1/K	0.000521 1/K	0.000516 1/K
288.15 K	0.000557 1/K	0.00055 1/K	0.000543 1/K	0.000539 1/K	0.000537 1/K	0.00053 1/K	0.000527 1/K	0.00052 1/K	0.000514 1/K	0.000513 1/K
298.15 K	0.000549 1/K	0.000547 1/K	0.000539 1/K	0.000533 1/K	0.000529 1/K	0.000524 1/K	0.000518 1/K	0.000513 1/K	0.00051 1/K	0.000507 1/K
308.15 K	0.000544 1/K	0.000538 1/K	0.000533 1/K	0.000527 1/K	0.000522 1/K	0.000517 1/K	0.000512 1/K	0.000509 1/K	0.000504 1/K	0.0005 1/K
318.15 K	0.000538 1/K	0.000534 1/K	0.00053 1/K	0.000522 1/K	0.000517 1/K	0.000513 1/K	0.000508 1/K	0.000504 1/K	0.000499 1/K	0.000494 1/K
328.15 K	0.000533 1/K	0.000529 1/K	0.000524 1/K	0.000519 1/K	0.000512 1/K	0.000508 1/K	0.000503 1/K	0.000498 1/K	0.000493 1/K	0.000489 1/K
338.15 K	0.00053 1/K	0.000525 1/K	0.000521 1/K	0.000514 1/K	0.000508 1/K	0.000506 1/K	0.000499 1/K	0.000496 1/K	0.000491 1/K	0.000489 1/K
348.15 K	0.000527 1/K	0.000524 1/K	0.000517 1/K	0.000512 1/K	0.000506 1/K	0.000502 1/K	0.000499 1/K	0.000494 1/K	0.00049 1/K	0.000486 1/K

CCCCn1cc[n+](C)c1.F[B-](F)(F)F [1-butyl-3-methylimidazolium tetrafluoroborate]
isobaric coefficient of expansion
Settings	5000 kPa	10000 kPa	15000 kPa	20000 kPa	25000 kPa	30000 kPa	35000 kPa	40000 kPa	45000 kPa	50000 kPa
278.15 K	0.000605 1/K	0.0006 1/K	0.000592 1/K	0.000586 1/K	0.000581 1/K	0.000575 1/K	0.000571 1/K	0.000564 1/K	0.000559 1/K	0.000553 1/K
288.15 K	0.000598 1/K	0.000592 1/K	0.000587 1/K	0.000582 1/K	0.000577 1/K	0.00057 1/K	0.000566 1/K	0.000557 1/K	0.000555 1/K	0.000553 1/K
298.15 K	0.000594 1/K	0.00059 1/K	0.000581 1/K	0.000575 1/K	0.000571 1/K	0.000563 1/K	0.000558 1/K	0.000552 1/K	0.000547 1/K	0.000545 1/K
308.15 K	0.000588 1/K	0.00058 1/K	0.000575 1/K	0.000569 1/K	0.000561 1/K	0.000557 1/K	0.00055 1/K	0.000547 1/K	0.000542 1/K	0.000535 1/K
318.15 K	0.00058 1/K	0.000577 1/K	0.00057 1/K	0.000561 1/K	0.000558 1/K	0.000552 1/K	0.000547 1/K	0.000543 1/K	0.000536 1/K	0.000532 1/K
328.15 K	0.000576 1/K	0.00057 1/K	0.000563 1/K	0.000559 1/K	0.000551 1/K	0.000544 1/K	0.000541 1/K	0.000534 1/K	0.000528 1/K	0.000523 1/K
338.15 K	0.000571 1/K	0.000566 1/K	0.000561 1/K	0.000552 1/K	0.000547 1/K	0.000543 1/K	0.000536 1/K	0.000531 1/K	0.000526 1/K	0.000522 1/K
348.15 K	0.000569 1/K	0.000566 1/K	0.000557 1/K	0.000552 1/K	0.000545 1/K	0.000539 1/K	0.000535 1/K	0.000528 1/K	0.000524 1/K	0.00052 1/K

CCCCn1cc[n+](C)c1.O=S(=O)([O-])C(F)(F)F [1-butyl-3-methylimidazolium trifluoromethanesulfonate]
isobaric coefficient of expansion
Settings	5000 kPa	10000 kPa	15000 kPa	20000 kPa	25000 kPa	30000 kPa	35000 kPa	40000 kPa	45000 kPa	50000 kPa
278.15 K	0.000621 1/K	0.000612 1/K	0.000603 1/K	0.000599 1/K	0.00059 1/K	0.000585 1/K	0.000579 1/K	0.000575 1/K	0.000566 1/K	0.000561 1/K
288.15 K	0.000617 1/K	0.000607 1/K	0.000599 1/K	0.000593 1/K	0.000588 1/K	0.00058 1/K	0.000574 1/K	0.000566 1/K	0.000561 1/K	0.000558 1/K
298.15 K	0.00061 1/K	0.000604 1/K	0.000595 1/K	0.000588 1/K	0.000581 1/K	0.000574 1/K	0.000566 1/K	0.000559 1/K	0.000554 1/K	0.000549 1/K
308.15 K	0.000606 1/K	0.000597 1/K	0.000587 1/K	0.000581 1/K	0.000574 1/K	0.000568 1/K	0.000562 1/K	0.000556 1/K	0.000548 1/K	0.000543 1/K
318.15 K	0.0006 1/K	0.000595 1/K	0.000585 1/K	0.000579 1/K	0.000571 1/K	0.000564 1/K	0.000557 1/K	0.000551 1/K	0.000544 1/K	0.000539 1/K
328.15 K	0.000596 1/K	0.000586 1/K	0.000581 1/K	0.000574 1/K	0.000565 1/K	0.000559 1/K	0.000552 1/K	0.000544 1/K	0.000538 1/K	0.000534 1/K
338.15 K	0.000594 1/K	0.000585 1/K	0.000578 1/K	0.000571 1/K	0.000562 1/K	0.000556 1/K	0.000548 1/K	0.000542 1/K	0.000537 1/K	0.000532 1/K
348.15 K	0.000591 1/K	0.000583 1/K	0.000574 1/K	0.000568 1/K	0.000559 1/K	0.000552 1/K	0.000547 1/K	0.00054 1/K	0.000535 1/K	0.00053 1/K
